Patent publication US20140024041A1, “SOFT SUBSTRATE FOR CELL CULTURE AND PROCESS FOR PREPARING THE SAME” (COMMISSARIAT A L'ENERGIE ATOMIQUE ET AUX ENERGIES …, priority 2011, published 2014)

Columns and labels:
MCF10A cells = test: Cell traction force measurement from crossbow micropattern bar shortening on PAA; format: cell-based, human
Experimental: Non-tumorigenic human epithelial cells from the mammary gland, MCF10A, were plated on the micropatterned PAA substrates. Cells specifically attached to the fibronectin coated micropatterns since non-exposed PAA regions prevented protein adsorption (FIG. 2D). The effect of micropattern geometry on cell traction forces orientation was tested on various shapes: disc, pacman and crossbow (FIG. 3A). Spread cells exerted traction forces on the micropattern that could be measured by looking at the displacement of fluorescent beads embedded in the PAA gel (see FIG. 3B and Material and Methods). Particle Image Velocimetry followed by individual particle tracking were used to measure bead displacements ((Marganski et al (2003) Methods Enzymol 361:197-211; Sabass et al (2008) Biophys J 94(1):207-220). Force fields were calculated from the bead displacement fields by using the Fourier transform traction cytometry ((Sabass et al, supra; Butler et al (2002) Am J Physiol Cell Physiol 282(3):C595-605). Force fields exerted by individual cells were overlaid and averaged to quantify their reproducibility (FIG. 3C, D). On homogeneously coated regions cells developed forces that were randomly distributed from one cell to the other. In cells constrained on disc shaped micropatterns, forces were still randomly oriented but their magnitudes were lowered due to reduced cell spreading. In cells constrained on pacman shaped micropatterns, forces distribution was geometrically biased due to enhanced cell contraction above non adhesive regions. […] Importantly, most of the traction forces were reproducibly oriented upward, along the straight adhesive bar on the extremity of which the inventors measured the highest pressure (FIG. 3D). […]
When actin cables have an unpredictable spatial distribution, a given deformation cannot be directly assigned to a defined force magnitude. […] When the deformation was measured along the shortest, and therefore most contracted, cell axis, the correlation was improved (FIG. 4C). […]

[1] = test system: MCF10A expressing inducible ErbB2 receptor; test: Cell traction force measurement from crossbow micropattern shortening, ErbB2 inducible cells; format: cell-based, human; conditions: ErbB2 receptors activated with ligand, 1 μM, 48 hr before measurement, FIG. 5C
From the text: When actin cables have an unpredictable spatial distribution, a given deformation cannot be directly assigned to a defined force magnitude. Indeed, forces applied on adjacent adhesion sites both affect local deformations, due to the continuous nature of the substrate. Each deformation results from local and distant forces. So the calculation of the force field is highly dependent on the spatial distribution of force application sites and the relationship between deformation and forces varies from one cell to the other. The inventors hypothesized that in cells developing a reproducible architecture and a controlled pattern of force application, a given local deformation could be assigned to a defined value of the contractile force. […] When the deformation was measured along the shortest, and therefore most contracted, cell axis, the correlation was improved (FIG. 4C). […] On the crossbow, a single image acquisition was sufficient to measure the bar length and read the corresponding average cell traction force using the calibration curve (FIG. 5F). […]
The culture of MCF10A cells and the generation of ΔCK2β cell line were described previously (Deshiere et al (2008) Mol Cell Biochem 316(1-2):107-113). […] Substrate relaxation was assessed by detaching cells with trypsin. […]

For `Cc1ccc2c(c1)C(=O)C1(O)CCN(c3ccccc3)C1=N2` (stereo not shown) [Blebbistatin], the “force magnitude decrease over time” value (MCF10A cells; 50 μM, single cell, FIG. 5B) was “follows a single exponential decay” and the “force inhibition profile in response to increasing dose” value (MCF10A cells; increasing dose, crossbow bar length, FIG. 5A) was “matched the myosin II inhibition profile”.
In the case of “TGFb1: known to induce epithelial to mesenchymal transition; from R&D systems”, the “level of cell contraction vs WT cells (crossbow shortening)” value (MCF10A cells; 2 ng/mL for 2 days before plating, FIG. 5C) is reported as “significantly higher level of cell contraction”.
For `CCC(C)(C)C(=O)C(=O)N1CCCC[C@H]1C(=O)O[C@H](CCc1ccc(OC)c(OC)c1)c1cccc(OCC(=O)NCCNC(=O)COc2cccc([C@@H](CCc3ccc(OC)c(OC)c3)OC(=O)[C@@H]3CCCCN3C(=O)C(=O)C(C)(C)CC)c2)c1` [AP 1510], the “level of cell contraction vs WT cells” value [1] was “no significant changes”.
